± gives the standard deviation of the averaged measurements.
Compound: CC(=O)N1CCc2c(c(N3CCCc4cc(-c5cnn(C)c5)c(C(F)F)cc43)nn2C2CCC(CN3CCN(c4ccc5c(c4)C(=O)N(C4CCC(=O)NC4=O)C5=O)CC3)CC2)C1 [CBPD-409]
Test: AUC of viability dose-response curve (relative to vehicle, 8 doses up to 10 µM) (fraction); higher = less sensitive (more viable); extreme values may be limits of the assay
Protocol: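 PRISM multiplexed pooled barcoded cell line viability screen at the Broad Institute, 887 cancer cell lines treated with CBPD-409 (p300/CBP PROTAC degrader) at 8 concentrations in threefold dilution, top dose 10 µM. The read-out is the area under the dose-response curve of relative viability versus vehicle (n=3). AUC < 0.3 is called strongly sensitive and AUC > 0.8 resistant.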

Test System	AUC of viability dose-response curve
OC314_OVARY	0.619
COV362_OVARY	0.887
NCIH2023_LUNG	1
NCIH1568_LUNG	0.958
SW1463_LARGE_INTESTINE	1
KMRC1_KIDNEY	1
HCC1143_BREAST	0.623
WM2664_SKIN	0.988
TTC442_SOFT_TISSUE	0.911
UPCISCC072_UPPER_AERODIGESTIVE_TRACT	0.625
HCC515_LUNG	0.612
CAL12T_LUNG	0.645
TT1TKB_LARGE_INTESTINE	1
SW756_CERVIX	0.437
HCC56_LARGE_INTESTINE	0.809
CHL1_SKIN	0.148
KURAMOCHI_OVARY	0.967
EFE184_ENDOMETRIUM	0.79
U2940_HAEMATOPOIETIC_AND_LYMPHOID_TISSUE	1
NP3_CENTRAL_NERVOUS_SYSTEM	0.802
TOV112D_OVARY	0.724
UACC257_SKIN	1
PFSK1_CENTRAL_NERVOUS_SYSTEM	0.531
KNS81_CENTRAL_NERVOUS_SYSTEM	1

Test System	AUC of viability dose-response curve
MCC142_SKIN	0.969
NCIH196_LUNG	0.755
8305C_THYROID	0.823
SNU719_STOMACH	0.969
GDM1_HAEMATOPOIETIC_AND_LYMPHOID_TISSUE	0.877
MKN74_STOMACH	0.493
T47D_BREAST	0.593
SNU685_ENDOMETRIUM	1
ANGMCSS_CENTRAL_NERVOUS_SYSTEM	1
OV7_OVARY	1
ES2_OVARY	0.986
CHLA10_BONE	0.97
PECAPJ15_UPPER_AERODIGESTIVE_TRACT	0.917
L33_PANCREAS	0.692
ZR751_BREAST	0.411
COLO320_LARGE_INTESTINE	1
RCC10RGB_KIDNEY	1
KYSE70_OESOPHAGUS	1
GSU_STOMACH	0.326
UMUC6_URINARY_TRACT	0.585
KMRC20_KIDNEY	0.738
NCIH2170_LUNG	1
CALU6_LUNG	0.928
HEC116_ENDOMETRIUM	0.78

Test System	AUC of viability dose-response curve
DBTRG05MG_CENTRAL_NERVOUS_SYSTEM	0.854
HPBALL_HAEMATOPOIETIC_AND_LYMPHOID_TISSUE	0.878
MALME3M_SKIN	0.272
TT_OESOPHAGUS	0.566
A253_SALIVARY_GLAND	0.883
ESS1_ENDOMETRIUM	0.901
BLUE1_HAEMATOPOIETIC_AND_LYMPHOID_TISSUE	0.311
ICC9_BILIARY_TRACT	1
WERIRB1_AUTONOMIC_GANGLIA	1
TF1_HAEMATOPOIETIC_AND_LYMPHOID_TISSUE	0.757
PC14_LUNG	0.877
KU1919_URINARY_TRACT	0.267
OV56_OVARY	1
SKNBE2_AUTONOMIC_GANGLIA	0.539 ± 0.23
DOHH2_HAEMATOPOIETIC_AND_LYMPHOID_TISSUE	0.468
U2OS_BONE	1
THP1_HAEMATOPOIETIC_AND_LYMPHOID_TISSUE	1
NCIH1623_LUNG	0.92
SW1573_LUNG	1
1618K_TESTIS	0.518
MOLT13_HAEMATOPOIETIC_AND_LYMPHOID_TISSUE	1
TTC549_SOFT_TISSUE	0.52
KOPN8_HAEMATOPOIETIC_AND_LYMPHOID_TISSUE	0.704
CW9019_SOFT_TISSUE	0.735

Test System	AUC of viability dose-response curve
GIMEN_AUTONOMIC_GANGLIA	0.616
SKNFI_AUTONOMIC_GANGLIA	0.854
HCC2108_LUNG	0.793
639V_URINARY_TRACT	0.515
NCIH841_LUNG	0.855
COGE352_BONE	1
KELLY_AUTONOMIC_GANGLIA	0.234 ± 0.054
HT1376_URINARY_TRACT	1
SKOV3_OVARY	1
DANG_PANCREAS	1
SNU601_STOMACH	0.563
TOV21G_OVARY	0.644
MONOMAC6_HAEMATOPOIETIC_AND_LYMPHOID_TISSUE	0.577
H357_UPPER_AERODIGESTIVE_TRACT	0.815
HS939T_SKIN	0.815
LOVO_LARGE_INTESTINE	0.131
OCILY18_HAEMATOPOIETIC_AND_LYMPHOID_TISSUE	0.451
FLO1_OESOPHAGUS	0.731
MKN1_STOMACH	1
MPP89_PLEURA	1
HUG1N_STOMACH	1
MDAPCA2B_PROSTATE	0.266
LC1SQSF_LUNG	0.991
IGROV1_OVARY	0.956

Test System	AUC of viability dose-response curve
CAMA1_BREAST	0.746
JURKAT_HAEMATOPOIETIC_AND_LYMPHOID_TISSUE	0.66
ONDA9_CENTRAL_NERVOUS_SYSTEM	1
S117_THYROID	0.612
CCLP1_BILIARY_TRACT	0.45
LN382_CENTRAL_NERVOUS_SYSTEM	1
CORL88_LUNG	0.612
HT29_LARGE_INTESTINE	0.633
MMNK1_BILIARY_TRACT	0.479
C32_SKIN	0.562
RERFLCAD2_LUNG	0.946
MEG01_HAEMATOPOIETIC_AND_LYMPHOID_TISSUE	0.74
OCILY3_HAEMATOPOIETIC_AND_LYMPHOID_TISSUE	0.617
HEC265_ENDOMETRIUM	0.695
HSC3_UPPER_AERODIGESTIVE_TRACT	0.936
DV90_LUNG	0.588
NCIH1975_LUNG	0.862
JL1_PLEURA	0.532
NCIH524_LUNG	1
NCIH2009_LUNG	0.596
NCIH2172_LUNG	0.62
LS_AUTONOMIC_GANGLIA	0.248
HCSC1_CERVIX	0.357
LI7_LIVER	1

Reference: the supplement of paper PMC12513837
